Like-named read-outs stand apart in the source and are kept apart here.
Legend:
abdomen skin of mice = details: 1 mg/mL, first three hours
Protocol: In vitro diffusion cell construction: the abdomen skin of mice was removed, the fat layer was shaved off, and the skin was fixed on a diffusion cell. 7.5 mL PBS was added to the diffusion cell below the skin, and 0.75 mL perfluoroheptanoic acid-modified chitosan-tranexamic acid and the same concentration of pure tranexamic acid solution were respectively added to the diffusion cell above the skin.
Measurement of tranexamic acid penetration rate: 500 μL of PBS was removed from the bottom of the diffusion cell at 0, 1, and 3 h and the same volume of PBS was supplemented. The content of tranexamic acid was detected under the following HPLC conditions: methanol and 0.05 mol/L KH2PO4-0. 2% H3PO4 solution (volume ratio 5:95) as mobile phase, flow rate 1.0 mL/min, and detection wavelength 210 nm, and the cumulative penetration was calculated.

C57BL/6 mice = details: mouse, in vivo
Protocol: Experimental designers used adriamycin, epirubicin (THP) and fluorescent dye rhodamine B as a bladder perfusion drug respectively to mix with chitosan (1% acetic acid aqueous solution) to prepare chitosan bladder perfusion drug systems. After 1 h of bladder perfusion, the bladder tissue was removed, frozen sections were prepared, the fluorescence intensity of the drug was analyzed with a confocal fluorescence microscope, and the distribution of the drug in the bladder tissue was investigated. […] In order to further investigate the biological safety of chitosan as a drug carrier for perfusion, the designers of the project perfused the mouse bladder with a 15 mg/ml chitosan aqueous solution, stopped the perfusion after 1 h, continued to raise the mice under normal feeding conditions, and recorded the mice weight. […] After dissection, the bladder of the mice in the experimental group was compared with that of the mice in the control group.
Healthy C57BL/6 mice aged 10-12 weeks were divided into three groups, 8 mice/each group. The experimental group was perfused with 15 mg/ml fluorinated chitosan or 1% chitosan in aqueous acetic acid solution for 1 h, once a week for three weeks, and the blank control group was perfused with equal volume of double distilled water. […]

mouse eye = details: in vivo
Protocol: In order to evaluate the penetrating ability for the cornea, the cornea was subjected to immunofluorescence staining at different time points to observe the penetrating ability. Samples were taken 5 min, 15 min, 30 min, and 60 min after the drug with perfluoroheptanoic acid-modified chitosan was applied. Frozen sections were prepared, and the nuclei of the sections were stained and observed under a confocal microscope as shown in FIG. 4-7. Herein, the red is the fluorescence of the protein label, and the blue is the nucleus of the eye tissue.

Text for Balb/c mice: Balb/c mice at week 6 in the hair prohibition period were selected, and on the day before treatment, the mice in the perfluoroheptanoic acid-modified chitosan-metformin group, free metformin group, and blank control group were removed of the equivalent hair on the back and photographed as shown in the figure. Each mouse was uniformly sprayed with the drug according to its own treatment method, and the drug was given once every two days, 100 microliters each time.

## CN(C)C(=N)N=C(N)N [Metformin, metformin]
Balb/c mice; Day 0
  hair growth on the back: No hair
Balb/c mice; Day 11
  hair growth on the back: No hair
Balb/c mice; Day 13
  hair growth on the back: No hair
Balb/c mice; Day 17
  hair growth on the back: No hair

## NC[C@H]1CC[C@H](C(=O)O)CC1 [pure tranexamic acid, tranexamic acid]
Abdomen skin of mice
  cumulative penetration of tranexamic acid: substantially does not penetrate

## chitosan
C57BL/6 mice
  bladder HE staining and CD45 and Ki67 immunofluorescence: severe inflammatory stress and congestion and edema
  bladder HE staining and CD45 and Ki67 immunofluorescence, mucosal and epithelial damage: severe inflammatory stress and congestion and edema

## free protein: bovine serum albumin labeled Cy5.5 without fluorine-containing chitosan
Mouse eye
  penetration into the corneal epithelial cells: substantially does not enter

Reference: patent US20220273806A1, “USE OF FLUORINE-CONTAINING COMPOUND-MODIFIED CATIONIC POLYMER AS DRUG CARRIER AND PREPARATION METHOD” (SOOCHOW UNIVERSITY, priority 2020, published 2022)
